According to US20160136229A1, “MATERIALS FOR POSITIVE CATHEPSIN B MODULATION AND METHODS OF USE FOR TREATING MILD COGNITIVE IMPAIRMENT (MCI), EARLY DEMENTIA, A-SYNUCLEINOPATHY, TRAUMATIC BRAIN INJURY, CARDIOMYOPATHY, EYE DISEASE AND SKIN DAMAGE” (University of North Carolina at Pembroke, priority 2013, published 2016):

Experiments:
intracellular Aβ1-42 = experiment: Intracellular Aβ1-42 in pyramidal neurons of APPswe/PS1ΔE9 transgenic mice; format: in vivo, mouse; conditions: PADK-treated APPswe/PS1ΔE9 transgenic mice; CA1
From the text: FIG. 1. Lysosomal modulation increases the cathepsin B content of lysosomes and reduces intracellular Δβ1-42 in the APPswe/PS1ΔE9 transgenic mouse model of Alzheimer's disease. […] Without wishing to be bound by any scientific theory, the latter steps may involve processing/trafficking of active intermediate (intCB) and mature forms (matCB) from early/late endosomes to lysosomes in order to promote protein degradation (A). […] The increase in organellar cathepsin B enzyme (red) in PADK-treated APPswe/PS1ΔE9 transgenic mice (tg) was associated with a decrease in intracellular Δβ1-42 in the CA1 pyramidal neurons (C). Arrows denote co-localization in lysosomes, capturing intact Δβ1-42 before being degraded by cathepsin B. View-field widths: 12 μm. wt, vehicle-treated wild-type mice.
The lysosomal modulator Z-Phe-Ala-diazomethylketone (PADK) is administered to APPswe/PS1ΔE9 transgenic mice. Low-level PADK enhances cathepsin trafficking and maturation, thereby improving the clearance capacity of lysosomes (FIG. 1). It attenuates both PHF-tau and synaptic decline in the hippocampal slice model of protein accumulation (Bendiske and Bahr, 2003; Butler et al., 2005; Bahr, 2009). […] In PADK-treated transgenic mice, the increase in organellar cathepsin B was associated with a decrease in intracellular Aβ1-42 in pyramidal neurons (FIG. 1C).

[1] = target: T1, 30-kDa active form of cathepsin B (Rattus norvegicus, UniProt P00787); experiment: Immunoblot of active cathepsin B in brain region homogenates of Fischer rats; format: in vivo; conditions: hippocampal and neocortical homogenates; 27 mg/kg daily, 9 days of injections
T1 construct: assessed by immunoblot to label the 30-kDa active form of cathepsin B; from tissue; host or cells: Fischer rat brain regions (A5); rat brain regions, eye and skin after oral dosing (A18); rat organotypic heart slice cultures (A17)
T1 sequence (P00787 80-333 limits assumed): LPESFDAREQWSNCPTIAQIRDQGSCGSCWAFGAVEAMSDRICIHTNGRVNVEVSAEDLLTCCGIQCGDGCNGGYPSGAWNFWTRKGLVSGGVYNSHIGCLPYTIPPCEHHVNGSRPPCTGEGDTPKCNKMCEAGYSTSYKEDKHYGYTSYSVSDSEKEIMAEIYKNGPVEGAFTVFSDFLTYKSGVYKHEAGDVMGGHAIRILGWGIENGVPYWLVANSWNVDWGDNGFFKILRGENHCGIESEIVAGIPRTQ
Experimental: FIG. 3. Lysosomal modulator PADK dramatically up-regulates active cathepsin B levels in middle-aged Fischer rats, a model of MCI. The female rats were injected daily with vehicle (veh) or 27 mg/kg PADK for 9 days. Brain regions were dissected, homogenates prepared, and equal protein aliquots were assessed by immunoblot to label the 30-kDa active form of cathepsin B as well as actin load controls (A). The hippocampal homogenate samples were also stained for the postsynaptic marker GluR1 to assess for synaptic recovery in correspondence to cathepsin B regulation (A, lower blots).
Brains were removed from the Fischer rats after the behavior studies in order to assess cathepsin B and synaptic marker levels. […] Cathepsin B immunoreactivity was increased 4- to 8-fold in hippocampal as well as neocortical homogenates, while non-lysosomal proteins remained unchanged (gel load controls). In addition to the correspondence with improved memory, there is evidence that the lysosomal modulation corresponds with synaptic recovery, assessing the postsynaptic marker GluR1 in hippocampus (FIG. 3A lower blots, and FIG. 3C). Without wishing to be bound by any scientific theory, the results support the hypothesis that lysosomal enhancement offsets the age-related cascade of microtubule destabilization, transport failure, synaptic decline, and cognitive impairment. […]

Aβ peptide = Aβ peptide in hippocampal samples of mutant human APP mice; format: in vivo, mouse; conditions: PADK-treated transgenic mice; correlated with augmented active CatB in brain
Experimental: FIG. 4. Enhancing lysosome efficiency with the cathepsin B modulator PADK leads to reductions of multiple types of proteinopathy-related accumulation events. […] Age-matched wild-type mice (wt) and 9-10-month mutant human APP mice, a model of early dementia, treated with or without PADK were assessed for the 4-kDa Δβ peptide, the active form of cathepsin B (act CB), and other proteins in hippocampal samples (C). Similar treatment groups used another APP mouse model at 20-22 months of age to measure clearance of APP carboxyterminal fragments APP-αCTF and APP-βCTF (D). Rat hippocampal slice cultures from the untreated control group (con) and slices treated with submicromolar Δβ42 (early tauopathy model) in the absence or presence of PADK (5 μM for 4 days) were assessed for phosphorylated tau (pTau) and other proteins (E). For a model of early α-synucleinopathy, human A53T α-synuclein transgenic mice, at 7 months old, were studied with or without PADK treatment and assessed for human α-synuclein (α-syn) in TX-100 extracts of hippocampus and for other proteins in hippocampal homogenates (F). Plotted data (±SEM) were compared to neighboring vehicle groups by unpaired t-tests: *p=0.02, **p<0.01, ***p<0.001. APPswind and APP-PS1 mice are described in Butler et al., (2011), the entire content of which is hereby incorporated herein by reference. […]

Aβ1-42 peptide = conditions: cited from earlier work
cathepsin B = cathepsin B (Mus musculus, UniProt P10605); experiment: Cathepsin B species immunoblot in heart tissue of A53T mice; format: in vivo; set-up: heart tissue was obtained to test for changes in cathepsin B; from tissue; host or cells: mouse heart, wild-type and A53T transgenic (A16); conditions: A53T mice; i.p., 18 mg/kg/day
Chain of cathepsin B (P10605 80-333): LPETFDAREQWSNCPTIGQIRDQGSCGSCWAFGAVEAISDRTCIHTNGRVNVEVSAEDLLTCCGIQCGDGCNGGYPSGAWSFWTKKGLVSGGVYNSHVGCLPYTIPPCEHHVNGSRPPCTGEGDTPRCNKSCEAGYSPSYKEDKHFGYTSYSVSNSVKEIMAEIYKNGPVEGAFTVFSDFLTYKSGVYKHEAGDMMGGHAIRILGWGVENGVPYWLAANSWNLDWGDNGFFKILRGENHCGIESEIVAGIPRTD
Experimental: FIG. 8. PADK also enhances cathepsin B species in the heart. The A53T early α-synucleinopathy mouse model was injected daily with vehicle or PADK (i.p., 18 mg/kg/day) to test for changes in heart tissue. […] Positions of molecular weight standards (kDa) are shown on the left side of the immunoblot. (B) In the lower graph, ratios between CB-30 and CB-105 (mean±SEM) provide a good example of the unique PADK effect on cathepsin B species in the heart. **P<0.01 as compared to vehicle-treated A53T mice.
Ratio measures between the 30-kDa form and the 105-kDa species indicate a unique PADK effect on cathepsin B species in the heart (FIG. 8 bar graph).

With `C[C@H](NC(=O)[C@H](Cc1ccccc1)NC(=O)OCc1ccccc1)C(=O)C=[N+]=[N-]` [PADK, N-carbobenzyloxy-L-phenylalanyl-L-alanyl-diazomethylketone] the “intracellular Aβ1-42 in pyramidal neurons” value (intracellular Aβ1-42) was “decrease”, the “Cathepsin B immunoreactivity increase” value [1] was 4- to 8 fold and the Aβ peptide level (Aβ peptide) was “reductions”. The “extracellular Aβ deposits” value (Aβ1-42 peptide; AD mouse models) was “significantly reduced”, the “truncated Aβ38” value (Aβ1-42 peptide; AD transgenic mice) was “increase” and the “synaptic integrity and cognitive ability” value (Aβ1-42 peptide; AD transgenic mouse models) was “improved”. For the same compound, the “intracellular Aβ1-42 peptide in the hippocampus and other brain regions” value (Aβ1-42 peptide; two different transgenic mouse models of AD) was “reduced”, the “active form of cathepsin B” value (Aβ1-42 peptide; two mouse models of AD) was “markedly up-regulated” and the “active form of cathepsin B (CB-30) in heart” value (cathepsin B) was “robust PADK-mediated increase”.
